Reference: ChEMBL document CHEMBL1201862, “PubChem BioAssay data set” (2004)
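Compound exposure: 48 hours, 5 concentrations, 96-well plates. GI50 = concentration required for 50% inhibition of growth.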 Active and inactive are the calls of the source. No stated cut-off is given here; in the data, active = GI50 up to about 1.1 µM and inactive = higher.

Key:
Assay in all cases: NCI tumour cell line growth inhibition, 48 h
UO-31 = tested on: UO-31
KM12 = tested on: KM12
786-0 = tested on: 786-0
HCC 2998 = tested on: HCC 2998
SK-MEL-2 = tested on: SK-MEL-2
SK-OV-3 = tested on: SK-OV-3
SNB-19 = tested on: SNB-19
A549 = tested on: A549
SK-MEL-5 = tested on: SK-MEL-5
PC-3 = tested on: PC-3
IGROV-1 = tested on: IGROV-1
A498 = tested on: A498
HCT-116 = tested on: HCT-116
DU-145 = tested on: DU-145
HOP-62 = tested on: HOP-62
MCF7 = tested on: MCF7
NCI-H460 = tested on: NCI-H460
HL-60 = tested on: HL-60
SW-620 = tested on: SW-620
HCT-15 = tested on: HCT-15
U-251 = tested on: U-251
SNB-75 = tested on: SNB-75
NCI-H226 = tested on: NCI-H226
MOLT-4 = tested on: MOLT-4
UACC-62 = tested on: UACC-62
COLO 205 = tested on: COLO 205
NCI/ADR-RES = tested on: NCI/ADR-RES
HOP-92 = tested on: HOP-92
TK-10 = tested on: TK-10
LOX IMVI = tested on: LOX IMVI
HT-29 = tested on: HT-29
MDA-MB-435 = tested on: MDA-MB-435
OVCAR-5 = tested on: OVCAR-5
SF-268 = tested on: SF-268
OVCAR-4 = tested on: OVCAR-4
Malme-3M = tested on: Malme-3M
MDA-N = tested on: MDA-N
EKVX = tested on: EKVX
CAKI-1 = tested on: CAKI-1
Hs-578T = tested on: Hs-578T
M14 = tested on: M14
UACC-257 = tested on: UACC-257
SR = tested on: SR
RPMI-8226 = tested on: RPMI-8226
OVCAR-8 = tested on: OVCAR-8
T47D = tested on: T47D
SK-MEL-28 = tested on: SK-MEL-28
CCRF-CEM = tested on: CCRF-CEM
ACHN = tested on: ACHN
NCI-H23 = tested on: NCI-H23
NCI-H522 = tested on: NCI-H522
OVCAR-3 = tested on: OVCAR-3
SF-539 = tested on: SF-539
K562 = tested on: K562
SF-295 = tested on: SF-295
SN12C = tested on: SN12C

CN1C/C(=C\c2ccccc2[N+](=O)[O-])C(=O)/C(=C/c2ccccc2[N+](=O)[O-])C1
GI50 (UO-31): 0.373 µM (active)
GI50 (KM12): 1.24 µM (inactive)
GI50 (786-0): 0.192 µM (active)
GI50 (HCC 2998): 1.45 µM (inactive)
GI50 (SK-MEL-2): 2.09 µM (inactive)
GI50 (SK-OV-3): 2.75 µM (inactive)
GI50 (SNB-19): 6.1 µM (inactive)
GI50 (A549): 3.43 µM (inactive)
GI50 (SK-MEL-5): 1.32 µM (inactive)
GI50 (PC-3): 1.14 µM (inactive)
GI50 (IGROV-1): 0.442 µM (active)
GI50 (A498): 1.93 µM (inactive)
GI50 (HCT-116): 0.215 µM (active)
GI50 (DU-145): 1.51 µM (inactive)
GI50 (HOP-62): 2.95 µM (inactive)
GI50 (MCF7): 0.408 µM (active)
GI50 (NCI-H460): 2.57 µM (inactive)
GI50 (HL-60): 0.0796 µM (active)
GI50 (SW-620): 0.173 µM (active)
GI50 (HCT-15): 0.251 µM
GI50 (U-251): 1.7 µM (inactive)
GI50 (SNB-75): 1.86 µM (inactive)
GI50 (NCI-H226): 3.09 µM (inactive)
GI50 (MOLT-4): 0.192 µM (active)
GI50 (UACC-62): 1.31 µM (inactive)
GI50 (COLO 205): 0.164 µM (active)
GI50 (NCI/ADR-RES): 1.55 µM (inactive)
GI50 (HOP-92): 1.09 µM (active)
GI50 (TK-10): 0.893 µM (active)

O=C1c2ccccc2N1C(=O)c1ccccc1[N+](=O)[O-]
GI50 (LOX IMVI): 32.1 µM (inactive)
GI50 (HT-29): 88.1 µM (inactive)
GI50 (MDA-MB-435): > 100 µM (inactive)
GI50 (OVCAR-5): > 100 µM (inactive)
GI50 (SF-268): 39.9 µM (inactive)
GI50 (UO-31): > 100 µM (inactive)
GI50 (OVCAR-4): 30 µM (inactive)
GI50 (Malme-3M): 29.6 µM (inactive)
GI50 (KM12): 50 µM (inactive)
GI50 (786-0): 57 µM (inactive)
GI50 (HCC 2998): > 100 µM (inactive)
GI50 (SK-MEL-2): 90.8 µM (inactive)
GI50 (SK-OV-3): > 100 µM (inactive)
GI50 (MDA-N): 74.6 µM (inactive)
GI50 (SNB-19): > 100 µM (inactive)
GI50 (A549): 45.2 µM (inactive)
GI50 (EKVX): > 100 µM (inactive)
GI50 (CAKI-1): 92 µM (inactive)
GI50 (SK-MEL-5): 51.8 µM (inactive)
GI50 (Hs-578T): 56.1 µM (inactive)
GI50 (PC-3): > 100 µM (inactive)
GI50 (IGROV-1): > 100 µM (inactive)
GI50 (A498): > 100 µM (inactive)
GI50 (HCT-116): 36.1 µM (inactive)
GI50 (DU-145): > 100 µM (inactive)
GI50 (HOP-62): 45.4 µM (inactive)
GI50 (M14): 59.7 µM (inactive)
GI50 (UACC-257): > 100 µM (inactive)
GI50 (SR): > 100 µM (inactive)
GI50 (MCF7): 97.1 µM (inactive)
GI50 (RPMI-8226): 64.4 µM (inactive)
GI50 (OVCAR-8): 25.1 µM (inactive)
GI50 (NCI-H460): > 100 µM (inactive)
GI50 (HL-60): > 10 µM (inactive)
GI50 (SW-620): > 100 µM (inactive)
GI50 (T47D): > 100 µM (inactive)
GI50 (HCT-15): 44.2 µM
GI50 (SK-MEL-28): > 100 µM (inactive)
GI50 (U-251): 90.6 µM (inactive)
GI50 (CCRF-CEM): 48.9 µM (inactive)
GI50 (SNB-75): 53.3 µM (inactive)
GI50 (NCI-H226): 12.3 µM (inactive)
GI50 (MOLT-4): > 100 µM (inactive)
GI50 (ACHN): 78.9 µM (inactive)
GI50 (NCI-H23): > 100 µM (inactive)
GI50 (NCI-H522): 91.2 µM (inactive)
GI50 (UACC-62): > 100 µM (inactive)
GI50 (COLO 205): 61.1 µM (inactive)
GI50 (OVCAR-3): 18.6 µM (inactive)
GI50 (SF-539): 32.2 µM (inactive)
GI50 (HOP-92): > 100 µM (inactive)
GI50 (TK-10): > 100 µM (inactive)
GI50 (K562): > 100 µM (inactive)

COc1ccc(C2=C(OC(=O)N(C)C)c3cccn3-c3cc(C(F)(F)F)ccc3S2)cc1
GI50 (LOX IMVI): > 10 µM (inactive)
GI50 (HT-29): > 10 µM (inactive)
GI50 (SF-268): > 10 µM (inactive)
GI50 (Malme-3M): > 10 µM (inactive)
GI50 (KM12): 0.467 µM (active)
GI50 (786-0): > 10 µM (inactive)
GI50 (HCC 2998): > 10 µM (inactive)
GI50 (SK-OV-3): > 10 µM (inactive)
GI50 (MDA-N): > 10 µM (inactive)
GI50 (A549): > 10 µM (inactive)
GI50 (EKVX): > 10 µM (inactive)
GI50 (CAKI-1): > 10 µM (inactive)
GI50 (SK-MEL-5): > 10 µM (inactive)
GI50 (PC-3): 4.3 µM (inactive)
GI50 (IGROV-1): > 10 µM (inactive)
GI50 (DU-145): > 10 µM (inactive)
GI50 (HOP-62): > 10 µM (inactive)
GI50 (M14): > 10 µM (inactive)
GI50 (UACC-257): > 10 µM (inactive)
GI50 (SR): 4.99 µM (inactive)
GI50 (MCF7): 9.29 µM (inactive)
GI50 (RPMI-8226): 3.75 µM (inactive)
GI50 (OVCAR-8): > 10 µM (inactive)
GI50 (HL-60): 6.03 µM (inactive)
GI50 (SW-620): > 10 µM (inactive)
GI50 (T47D): 3.47 µM (inactive)
GI50 (HCT-15): > 10 µM
GI50 (SK-MEL-28): > 10 µM (inactive)
GI50 (CCRF-CEM): > 10 µM (inactive)
GI50 (SNB-75): > 10 µM (inactive)
GI50 (SF-295): > 10 µM (inactive)
GI50 (MOLT-4): 4.79 µM (inactive)
GI50 (NCI-H23): 8.81 µM (inactive)
GI50 (UACC-62): > 10 µM (inactive)
GI50 (COLO 205): > 10 µM (inactive)
GI50 (TK-10): > 10 µM (inactive)
GI50 (K562): > 10 µM (inactive)
GI50 (SN12C): > 10 µM (inactive)
